The record followed here is patent US3984390A, “Novel process for producing phleomycin group antibiotics” (Zaidan Hojin Biseibutsu Kagaku Kenkyu Kai, priority 1972, dated 1976).

Series [1] relates to Mycobacterium smegmatis 607. The experiment in a line: Antimicrobial potency, cylinder agar plate method, Bleomycin A2 (copper-free base) assumed as 1000 U/mg. Type of series: cell-based. The conditions noted are these: for Antimicrobial potency: Mycobacterium smegmatis 607. How it is done:
1. Antimicrobial potency was assayed by a cylinder agar plate method on the basis of Bleomycin A2 (copper-free base) assumed as 1000 U/mg, using Mycobacterium smegmatis 607 as test organism.
^(1) Assayed by a cylinder-agar plate method using Mycobacterium
smegmatis 607 as test organism, the potency of bleomycin A2
(copper-free base) being assumed as 1000 unit/mg.
The resulting compound has 0.65 of Rf value of the Silica gel thin layer chromatograph (CH3 OH: 10 %-CH3 COONH4 : 10 %-NH4 OH = 10 : 9 : 1) and 0.53 of Rf value of the Avicel thin layer chromatography (n-C3 H7 OH : pyridine : CH3 COOH : H2 O = 15 : 10 : 3 : 12) which are same with those of the 3-morpholinopropylaminobleomycin. The antimicrobial activity to Mycobacterium smegmatis 607 by the cylinder-agar plate method (the standard copper-free bleomycin A2 free base 1,000 U/mg) was 605 U/mg.

In series [2] the test system is Ehrlich ascites carcinoma. The experiment in a line: Antitumor activity and toxicity in ICR-SLC mouse inoculated with Ehrlich ascites carcinoma, i.p. for ten consecutive days. The format is in vivo. The conditions noted are these: for Chemotherapeutic index: Table 5, ten consecutive days into peritoneal cavity, evaluated 50 days after beginning. Here is the method:
The phleomycin was administered for ten consecutive days into peritoneal cavity of a ICR-SLC mouse, into which Ehrlich ascites carcinoma had been inoculated. Fifty days after the beginning of the experiment, measurements were made for (1) the number of dead mouse owing to toxicity, (2) the number of survived mouse, (3) mean survival period in 50 days, and (4) the ratio of mean survival period to that of reference mouse multiplied by 100. The chemotherapeutic index was calculated from the values of ED50 (50 % effective dose) and LD50 (50 % lethal dose) which were obtained as given below.
ED50 value: The maximum dose level within the range of logevity ratio of 100 to 200.
LD50 value: Calculated according to Behrens-Karber method from the data of (1) and (2).
^(2) A bleomycin was administered for ten consecutive days into
peritoneal cavity of a ICR-SLC mouse, where Ehrlich ascites carcinoma had
been inoculated, and 50 days after the beginning of experiment the […]

The mark [3] stands for this setting: phleomycins of Table 1, Bleomycin A2 (copper-free base) = 1000 U/mg.
Where [4] appears, read: bleomycins of Table 5, bleomycin A2 (copper-free base) = 1000 unit/mg.
[5] abbreviates: 0.19 mg/kg/day for 10 days i.p.
[6] abbreviates: 0.39 mg/kg/day for 10 days i.p.
Where [7] appears, read: 0.78 mg/kg/day for 10 days i.p.
[8] abbreviates: 1.56 mg/kg/day for 10 days i.p.
The mark [9] stands for this setting: 3.12 mg/kg/day for 10 days i.p.
Setting [10] is: 6.25 mg/kg/day for 10 days i.p.
[11] abbreviates: 12.5 mg/kg/day for 10 days i.p.
Setting [12] is: 25.0 mg/kg/day for 10 days i.p.

On to 2-(Imidazol-4-yl)ethylaminophleomycin, for which the Antimicrobial potency in series [1] (setting [3]) is recorded as 678 unit/mg.

For 2-N,N-Diethylaminoethylaminophleomycin, in series [1] (setting [3]), the Antimicrobial potency came to 882 unit/mg.

The substance 2-N,N-Dimethylaminoethylaminobleomycin displayed a Chemotherapeutic index in series [2] of 7.8. In series [1] (setting [4]), this substance came in with an Antimicrobial potency of 897 Unit/mg.

In series [1] (setting [3]), 2-N,N-Dimethylaminoethylaminophleomycin gave an Antimicrobial potency of 718 unit/mg.

As for “3-(3-Morpholinopropylamino)propylaminophleomycin”, the Antimicrobial potency in series [1] (setting [3]) is listed as 961 unit/mg.

“3-(3-N,N-Dimethylaminopropylamino)propylaminobleomycin” registered a Chemotherapeutic index in series [2] of 54. This substance also gave an Antimicrobial potency in series [1] (setting [4]) of 1670 Unit/mg.

For “3-(3-N-Benzylaminopropylamino)propylaminobleomycin”, the Chemotherapeutic index in series [2] was determined as 24.0. In series [1] (setting [4]), this substance showed an Antimicrobial potency of 6000 Unit/mg.

As to “3-(3-N-Benzylaminopropylamino)propylaminophleomycin”, the Antimicrobial potency in series [1] (setting [3]) is 6710 unit/mg.

“3-(3-N-Cyclohexylaminopropylamino)propylaminobleomycin”: the Chemotherapeutic index in series [2] was found to be 39.5. In series [1] (setting [4]), this substance returned an Antimicrobial potency of 12335 Unit/mg.

In the case of “3-(3-N-Cyclohexylaminopropylamino)propylaminophleomycin”, the Antimicrobial potency in series [1] (setting [3]) came out at 8570 unit/mg.

Turning to “3-(3-N-n-Butylaminopropylamino)propylaminobleomycin”, in series [2], the Chemotherapeutic index was found to be 59.2. For the same substance, in series [1] (setting [4]), the Antimicrobial potency was determined as 5840 Unit/mg.

In turn, “3-(3-N-n-Butylaminopropylamino)propylaminophleomycin” displayed an Antimicrobial potency in series [1] (setting [3]) of 4672 unit/mg.

For “3-(3-Piperidinopropylamino)propylaminobleomycin”, in series [2], the Chemotherapeutic index is on record as 16.8. For the same substance, in series [1] (setting [4]), the Antimicrobial potency was 3580 Unit/mg.

Take “3-(3-Piperidinopropylamino)propylaminophleomycin”: in series [1] (setting [3]), the Antimicrobial potency was 2864 unit/mg.

Turning to “3-(3-Pyrrolidinopropylamino)propylaminobleomycin”, the Chemotherapeutic index in series [2] came to 26.4. The same substance yielded an Antimicrobial potency in series [1] (setting [4]) of 3286 Unit/mg.

Turning to “3-(3-Pyrrolidinopropylamino)propylaminophleomycin”, the Antimicrobial potency in series [1] (setting [3]) was determined as 2051 unit/mg.

Substance “3-(N,N,N-Trimethylamino)propylaminophleomycin chloride” had an Antimicrobial potency in series [1] (setting [3]) of 506 unit/mg.

Regarding “3-(N,N-Dimethylaminopropylamino)propylaminophleomycin”, the Antimicrobial potency in series [1] (setting [3]) came out at 1336 unit/mg.

Consider 3-Amidinopropylaminophleomycin, for which the Antimicrobial potency in series [1] (setting [3]) was found to be 2500 unit/mg.

Substance 3-Guanidinopropylaminophleomycin had an Antimicrobial potency in series [1] (setting [3]) of 2300 unit/mg.

Regarding 3-Morpholinopropylaminobleomycin, the “Average longevity (mean survival period in 50 days)” value in series [2] (setting [5]) was determined as 11.8; in series [2] (setting [6]) it was 11.8; in series [2] (setting [7]), 33.0; in series [2] (setting [8]), 36.6; in series [2] (setting [9]) it was 45.2; in series [2] (setting [10]), 34.2. In addition, the “Average longevity (mean survival period in 50 days)” value in series [2] (setting [11]) is recorded as 30.4; in series [2] (setting [12]), 12.4. The “Longevity ratio (mean survival period to that of reference mouse multiplied by 100)” value in series [2] (setting [5]) is 97; in series [2] (setting [6]) it was 97; in series [2] (setting [7]), 270; in series [2] (setting [8]), 300; in series [2] (setting [9]), 370; in series [2] (setting [10]) it was 280. In addition, the “Longevity ratio (mean survival period to that of reference mouse multiplied by 100)” value is listed as 249 in series [2] (setting [11]) and 102 in series [2] (setting [12]). Besides, the “Toxicity, number dead/total number” value in series [2] (setting [5]) is listed as 0/5; in series [2] (setting [6]), 0/5; in series [2] (setting [7]) it was 0/5; in series [2] (setting [8]), 0/5; in series [2] (setting [9]) it was 0/5; in series [2] (setting [10]), 2/5. Also, the figures for the “Toxicity, number dead/total number” value in series [2] (setting [11]) and in series [2] (setting [12]) were 4/5 and 5/5, respectively. The “Viability (after 50 days), number survived/total number” value in series [2] (setting [5]) is 0/5; in series [2] (setting [6]) it was 0/5; in series [2] (setting [7]), 2/5; in series [2] (setting [8]), 3/5; in series [2] (setting [9]), 4/5; in series [2] (setting [10]) it was 3/5. The “Viability (after 50 days), number survived/total number” value is on record as 1/5 in series [2] (setting [11]) and 0/5 in series [2] (setting [12]). In series [2], this substance registered a Chemotherapeutic index of 21.7. In addition, the “Chemotherapeutic index (LD50/ED50)” value in series [2] (Tables 2 to 4, i.p., for 10 days, 72000 min) is on record as 12.1. Besides, the “LD50 (50 % lethal dose)” value in series [2] (i.p., for 10 days, Behrens-Karber method, 72000 min) is listed as 9.4 mg/kg/day. Further, in series [2] (i.p., for 10 days, maximum dose level within the range of longevity ratio of 100 to 200, 72000 min), the “ED50 (50 % effective dose)” value turned out to be 0.78 mg/kg/day. The “Antimicrobial activity to Mycobacterium smegmatis 607” value in series [1] (Referential Example, standard copper-free bleomycin A2 free base 1,000 U/mg) came to 605 U/mg. In series [1] (setting [4]), this substance showed an Antimicrobial potency of 592 Unit/mg.

In series [1] (setting [3]), 3-N,N-Diethylaminopropylaminophleomycin gave an Antimicrobial potency of 829 unit/mg.

Regarding “3-N,N-Dimethylaminopropylaminophleomycin”, the Antimicrobial potency in series [1] (setting [3]) was found to be 648 unit/mg.

As to “3-N-(1-Phenylethyl)aminopropylaminophleomycin”, the Antimicrobial potency in series [1] (setting [3]) was found to be 4030 unit/mg.

“3-N-(3,3-Dichloropropyl)aminopropylaminophleomycin” showed an Antimicrobial potency in series [1] (setting [3]) of 3120 unit/mg.

For the substance “3-N-(3-Hydroxypropyl)aminopropylaminophleomycin”, in series [1] (setting [3]), the Antimicrobial potency came to 845 unit/mg.

As for 3-N-Benzylaminopropylaminophleomycin, the Antimicrobial potency in series [1] (setting [3]) is 3373 unit/mg.

In turn, “3-N-Cyclohexylaminopropylaminophleomycin” showed an Antimicrobial potency in series [1] (setting [3]) of 4284 unit/mg.

In series [1] (setting [3]), 3-N-Methylaminopropylaminophleomycin had an Antimicrobial potency of 688 unit/mg.

Consider 3-N-Propenylaminopropylaminophleomycin, for which, in series [1] (setting [3]), the Antimicrobial potency turned out to be 2100 unit/mg.

3-N-n-Butylaminopropylaminophleomycin: the Antimicrobial potency in series [1] (setting [3]) is recorded as 3535 unit/mg.

In series [1] (setting [3]), “3-N-tert-Butylaminopropylaminophleomycin” yielded an Antimicrobial potency of 3520 unit/mg.

For 3-Piperazinopropylaminophleomycin, the Antimicrobial potency in series [1] (setting [3]) is on record as 581 unit/mg.

For the substance 3-Piperidinopropylaminophleomycin, the Antimicrobial potency in series [1] (setting [3]) was 1006 unit/mg.

As to 3-Pyrrolidinopropylaminophleomycin, in series [1] (setting [3]), the Antimicrobial potency is listed as 853 unit/mg.

The substance “3-[3-N-(1-phenylethyl)aminopropylamino]propylaminophleomycin” came in with an Antimicrobial potency in series [1] (setting [3]) of 7208 unit/mg.
